From patent US7964624B1, “Inhibitors of serine proteases” (priority 2005, dated 2011)

Molecular target: T1, full-length hepatitis C viral protein NS3•4A (Hepatitis C virus genotype 1a, UniProt P27958)
T1 construct: hexa-histidine (N); made in house; host or cells: Sf9 insect cells (baculovirus, pVL1392)
Assay: biochemical
Design: species or system HCV sub-type strain 1a
Conditions: Enzyme Assay 2 (HCV NS3 Peptide Cleavage Assay) activity, apparent Ki class

SMILES: CCC[C@H](NC(=O)[C@@H]1C[C@]2(CC(c3cc(C)c(OC)c(Cl)c3)=NO2)CN1C(=O)[C@@H](NC(=O)OC(C)(C)C)C(C)(C)C)C(=O)C(=O)NC1CC1 [Compound 645]
- Ki: < 100 nM

SMILES: CCC[C@H](NC(=O)[C@@H]1C[C@]2(CC(c3cc(C)c(OC)c(Cl)c3)=NO2)CN1C(=O)[C@@H](NC(=O)OC(C)(C)C)C(C)(C)C)C(=O)C(=O)NC [Compound 646]
- Ki: < 100 nM

SMILES: CCC[C@H](NC(=O)[C@@H]1C[C@]2(CC(c3cccc4cccnc34)=NO2)CN1C(=O)[C@@H](NC(=O)OC1CCCC1)C(C)(C)C)C(=O)C(=O)NC [Compound 647]
- Ki: 100 to 500 nM

SMILES: CCC[C@H](NC(=O)[C@@H]1C[C@]2(CC(c3cccc4cccnc34)=NO2)CN1C(=O)[C@@H](NC(=O)OC1CCCC1)C(C)(C)C)C(=O)C(=O)NC1CC1 [Compound 648]
- Ki: 100 to 500 nM

SMILES: CCC[C@H](NC(=O)[C@@H]1C[C@]2(CC(c3cc(Cl)ccc3OC)=NO2)CN1C(=O)[C@@H](NC(=O)CC1CCCCCC1)C(C)(C)C)C(=O)C(=O)NC1CC1 [Compound 649]
- Ki: 100 to 500 nM

SMILES: CCC[C@H](NC(=O)[C@@H]1C[C@]2(CC(c3cc(Cl)c(OC)cc3C)=NO2)CN1C(=O)[C@@H](NC(=O)OC1CCCC1)C(C)(C)C)C(=O)C(=O)NC [Compound 650]
- Ki: 100 to 500 nM

SMILES: CCC[C@H](NC(=O)[C@@H]1C[C@]2(CC(c3cc(Cl)c(OC)cc3C)=NO2)CN1C(=O)[C@@H](NC(=O)OC1CCCC1)C(C)(C)C)C(=O)C(N)=O [Compound 651]
- Ki: 100 to 500 nM

SMILES: CCC[C@H](NC(=O)[C@@H]1C[C@]2(CC(c3ccc(F)c(Cl)c3)=NO2)CN1C(=O)[C@@H](NC(=O)OC1CCCC1)C(C)(C)C)C(=O)C(=O)NC1CC1 [Compound 652]
- Ki: < 100 nM

SMILES: CCC[C@H](NC(=O)[C@@H]1C[C@]2(CC(c3ccc(F)c(Cl)c3)=NO2)CN1C(=O)[C@@H](NC(=O)OC1CCCC1)C(C)(C)C)C(=O)C(=O)NC [Compound 653]
- Ki: 100 to 500 nM

SMILES: CCC[C@H](NC(=O)[C@@H]1C[C@]2(CC(c3ccc(F)c(Cl)c3)=NO2)CN1C(=O)[C@@H](NC(=O)OC1CCCC1)C(C)(C)C)C(=O)C(N)=O [Compound 654]
- Ki: < 100 nM

SMILES: CCC[C@H](NC(=O)[C@@H]1C[C@]2(CC(c3cc(Cl)c(OC)cc3OC)=NO2)CN1C(=O)[C@@H](NC(=O)CC1CCCCCC1)C(C)(C)C)C(=O)C(=O)NC [Compound 655]
- Ki: 100 to 500 nM

SMILES: CCC[C@H](NC(=O)[C@@H]1C[C@]2(CC(c3cc(Cl)c(OC)cc3OC)=NO2)CN1C(=O)[C@@H](NC(=O)CC1CCCCCC1)C(C)(C)C)C(=O)C(N)=O [Compound 656]
- Ki: 100 to 500 nM

SMILES: CNC(=O)C(=O)[C@H](CC1CC1)NC(=O)[C@@H]1C[C@]2(CC(c3cc(Cl)c(OC)cc3OC)=NO2)CN1C(=O)[C@@H](NC(=O)CC1CCCCC1)C(C)(C)C [Compound 657]
- Ki: < 100 nM

SMILES: COc1c(C)cc(C2=NO[C@]3(C2)CC(C(=O)N[C@H](CC2CC2)C(=O)C(N)=O)N(C(=O)[C@@H](NC(=O)CC2CCCCC2)C(C)(C)C)C3)cc1Cl (some centres unmarked) [Compound 658]
- Ki: 100 to 500 nM

SMILES: CCC[C@H](NC(=O)[C@@H]1C[C@]2(CC(c3nccc4ccccc34)=NO2)CN1C(=O)[C@@H](NC(=O)OC1CCCC1)C(C)(C)C)C(=O)C(=O)NC1CC1 [Compound 661]
- Ki: < 100 nM

SMILES: CNC(=O)C(=O)[C@H](CC1CC1)NC(=O)[C@@H]1C[C@]2(CC(c3cc(Cl)c(OC)cc3C)=NO2)CN1C(=O)[C@@H](NC(=O)CC1CCCCC1)C(C)(C)C [Compound 662]
- Ki: 100 to 500 nM

SMILES: CCC[C@H](NC(=O)[C@@H]1C[C@]2(CC(c3cc(Cl)c(OC)cc3C)=NO2)CN1C(=O)[C@@H](NC(=O)OC1CCCC1)C(C)(C)C)C(=O)C(=O)NC1CC1 [Compound 666]
- Ki: < 100 nM

SMILES: CCC[C@H](NC(=O)[C@@H]1C[C@]2(CC(c3cc(Cl)ccn3)=NO2)CN1C(=O)[C@@H](NC(=O)OC1CCCC1)C(C)(C)C)C(=O)C(=O)NC1CC1 [Compound 667]
- Ki: < 100 nM

SMILES: CNC(=O)C(=O)[C@H](CC1CC1)NC(=O)[C@@H]1C[C@]2(CC(c3cccc4cccnc34)=NO2)CN1C(=O)[C@@H](NC(=O)CC1CCCCC1)C(C)(C)C [Compound 671]
- Ki: 100 to 500 nM

SMILES: CCC[C@H](NC(=O)[C@@H]1C[C@]2(CC(c3cc(Cl)c4c(c3)OCCO4)=NO2)CN1C(=O)[C@@H](NC(=O)CC1CCCCC1)C(C)(C)C)C(=O)C(=O)NC [Compound 674]
- Ki: < 100 nM

SMILES: CNC(=O)C(=O)[C@H](CC1CC1)NC(=O)[C@@H]1C[C@]2(CC(c3cc(Cl)c4c(c3)OCCO4)=NO2)CN1C(=O)[C@@H](NC(=O)CC1CCCCC1)C(C)(C)C [Compound 675]
- Ki: < 100 nM

SMILES: CCC[C@H](NC(=O)[C@@H]1C[C@]2(CC(c3cc(Cl)cc4c3OCOC4)=NO2)CN1C(=O)[C@@H](NC(=O)CC1CCCCC1)C(C)(C)C)C(=O)C(=O)NC1CC1 [Compound 676]
- Ki: < 100 nM

SMILES: CNC(=O)C(=O)[C@H](CC1CC1)NC(=O)[C@@H]1C[C@]2(CC(c3cc(Cl)cc4c3OCOC4)=NO2)CN1C(=O)[C@@H](NC(=O)CC1CCCCC1)C(C)(C)C [Compound 677]
- Ki: < 100 nM

SMILES: CCC[C@H](NC(=O)[C@@H]1C[C@]2(CC(c3cnc(OC)nc3OC)=NO2)CN1C(=O)[C@@H](NC(=O)OC1CCCC1)C(C)(C)C)C(=O)C(=O)NC1CC1 [Compound 678]
- Ki: 100 to 500 nM

SMILES: CCC[C@H](NC(=O)[C@@H]1C[C@]2(CC(c3cc(Cl)ccc3OC)=NO2)CN1C(=O)[C@@H](NC(=O)OC1CCCC1)C(C)(C)C)C(=O)C(=O)NC1CC1 [Compound 686]
- Ki: < 100 nM

SMILES: CNC(=O)C(=O)[C@H](CC1CC1)NC(=O)[C@@H]1C[C@]2(CC(c3cc(Cl)cc4c3OCO4)=NO2)CN1C(=O)[C@@H](NC(=O)OC(C)(C)C)C(C)(C)C [Compound 691]
- Ki: 100 to 500 nM

SMILES: CNC(=O)C(=O)[C@H](CC1CC1)NC(=O)[C@@H]1C[C@@]2(CC(c3nc(-c4ccccc4)no3)=NO2)CN1C(=O)[C@@H](NC(=O)OC1CCCC1)C(C)(C)C [Compound 694]
- Ki: 100 to 500 nM

SMILES: CNC(=O)C(=O)[C@H](CC1CC1)NC(=O)[C@@H]1C[C@]2(CC(c3cccc(Cl)c3)=NO2)CN1C(=O)[C@@H](NC(=O)C1C[C@@H]1c1ccccc1)C(C)(C)C (some centres unmarked) [Compound 695]
- Ki: < 100 nM

SMILES: CNC(=O)C(=O)[C@H](CC1CC1)NC(=O)[C@@H]1C[C@]2(CC(c3cccc(Cl)c3)=NO2)CN1C(=O)[C@@H](NC(=O)[C@@H]1C[C@H]1c1ccccc1)C(C)(C)C [Compound 696]
- Ki: < 100 nM

SMILES: CCC[C@H](NC(=O)[C@@H]1C[C@]2(CC(c3cccc(Cl)c3)=NO2)CN1C(=O)[C@@H](NC(=O)[C@H]1C[C@@H]1c1ccccc1)C(C)(C)C)C(=O)C(=O)NC1CC1 [Compound 697]
- Ki: < 100 nM

SMILES: CC(C)(C)[C@H](NC(=O)[C@H]1C[C@@H]1c1ccccc1)C(=O)N1C[C@@]2(CC(c3cccc(Cl)c3)=NO2)C[C@H]1C(=O)N[C@@H](CC1CC1)C(=O)C(N)=O [Compound 699]
- Ki: < 100 nM

SMILES: CCC[C@H](NC(=O)[C@@H]1C[C@]2(CC(c3cccc(Cl)c3)=NO2)CN1C(=O)[C@@H](NC(=O)OC1CCCCCC1)C(C)(C)C)C(=O)C(=O)NC1CC1 [Compound 706]
- Ki: < 100 nM

SMILES: COc1cc(C)c(C2=NO[C@]3(C2)C[C@@H](C(=O)N[C@@H](CC2CC2)C(=O)C(=O)NC2CC2)N(C(=O)[C@@H](NC(=O)CC2CCCCC2)C(C)(C)C)C3)cc1Cl [Compound 709]
- Ki: 100 to 500 nM

SMILES: CNC(=O)C(=O)[C@H](CC1CC1)NC(=O)[C@@H]1C[C@]2(CC(c3cccc(Cl)c3)=NO2)CN1C(=O)[C@@H](NC(=O)CC1CC2CCC1C2)C(C)(C)C (some centres unmarked) [Compound 716]
- Ki: < 100 nM

SMILES: CCC[C@H](NC(=O)[C@@H]1C[C@]2(CC(c3cc(C)c(OC)c(C)c3)=NO2)CN1C(=O)[C@@H](NC(=O)CC1CCCCC1)C(C)(C)C)C(=O)C(N)=O [Compound 724]
- Ki: < 100 nM
